Laboratory results: PubChem BioAssay (NCI)
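Abbreviation: GI50, concentration required for 50% inhibition of growth. TGI marks complete inhibition of growth.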

Tests used:
Experiment in all cases: DTP human tumour cell line panel, 384-well format
[1] = tested on: HCC-2998 colon
[2] = tested on: OVCAR-4 ovarian
[3] = tested on: OVCAR-3 ovarian
[4] = tested on: A549 NSCLC
[5] = tested on: MDA-MB-468 breast
[6] = tested on: TK-10 renal
[7] = tested on: SK-MEL-5 melanoma
[8] = tested on: NCI-H322M lung
[9] = tested on: T-47D breast
[10] = tested on: EKVX NSCLC
[11] = tested on: CAKI-1 renal
[12] = tested on: KM12 colon
[13] = tested on: RPMI-8226 leukemia
[14] = tested on: M14 melanoma
[15] = tested on: K-562 leukemia
[16] = tested on: SNB-75 CNS
[17] = tested on: NCI/ADR-RES ovarian
[18] = tested on: MALME-3M melanoma
[19] = tested on: NCI-H23 lung
[20] = tested on: MCF7 breast
[21] = tested on: CCRF-CEM leukemia
[22] = tested on: BT-549 breast
[23] = tested on: OVCAR-8 ovarian
[24] = tested on: LOX IMVI melanoma
[25] = tested on: SK-OV-3 ovarian
[26] = tested on: IGROV1 ovarian
[27] = tested on: SW-620 colon
[28] = tested on: U251 glioblastoma
[29] = tested on: UO-31 renal
[30] = tested on: UACC-257 melanoma
[31] = tested on: NCI-H460 NSCLC
[32] = tested on: ACHN renal
[33] = tested on: PC-3 prostate
[34] = tested on: HOP-62 NSCLC
[35] = tested on: SF-268 CNS
[36] = tested on: HS 578T breast
[37] = tested on: COLO 205 colon
[38] = tested on: A498 renal
[39] = tested on: UACC-62 melanoma
[40] = tested on: SF-539 CNS
[41] = tested on: HCT-116 colon
[42] = tested on: HOP-92 NSCLC
[43] = tested on: HCT-15 colon
[44] = tested on: DU-145 prostate
[45] = tested on: SK-MEL-28 melanoma
[46] = tested on: HT29 colon
[47] = tested on: MDA-MB-231 breast
[48] = tested on: SN12C renal
[49] = tested on: SNB-19 CNS
[50] = tested on: MOLT-4 leukemia
[51] = tested on: SF-295 CNS
[52] = tested on: RXF 393 renal
[53] = tested on: NCI-H522 lung
[54] = tested on: NCI-H226 lung
[55] = tested on: OVCAR-5 ovarian
[56] = tested on: MDA-MB-435 melanoma
[57] = tested on: 786-0 renal

Question: What does the source list for Cn1c(=O)c(F)c(Nc2ccc(I)cc2F)c2c(=O)n(C[C@@H](O)CO)cnc21?
Answer: GI50 [1]: < 0.01 µM; TGI [1]: 0.0128 µM; GI50 [2]: 15.6 µM; TGI [2]: 55.8 µM; GI50 [3]: 4.32 µM; TGI [3]: 19.2 µM; GI50 [4]: < 0.01 µM; TGI [4]: 9.91 µM; GI50 [5]: 0.387 µM; TGI [5]: 1.62 µM; GI50 [6]: 1.14 µM; TGI [6]: 16.9 µM; GI50 [7]: < 0.01 µM; TGI [7]: 10.7 µM; GI50 [8]: 0.0185 µM; TGI [8]: 16.6 µM; GI50 [9]: 1.53 µM; TGI [9]: 22.6 µM; GI50 [10]: 2.08 µM; TGI [10]: 25.5 µM; GI50 [11]: 0.0133 µM; TGI [11]: 19.2 µM; GI50 [12]: < 0.01 µM; TGI [12]: 13.6 µM; GI50 [13]: 11.6 µM; TGI [13]: 24.8 µM; GI50 [14]: < 0.01 µM; TGI [14]: < 0.01 µM; GI50 [15]: 0.011 µM; TGI [15]: 15.5 µM; GI50 [16]: 0.32 µM; TGI [16]: 17.5 µM; GI50 [17]: 12.7 µM; TGI [17]: 44.6 µM; GI50 [18]: < 0.01 µM; TGI [18]: < 0.01 µM; GI50 [19]: < 0.01 µM; TGI [19]: 0.0296 µM; GI50 [20]: 12.4 µM; TGI [20]: 29 µM; GI50 [21]: 10.6 µM; TGI [21]: 22.8 µM; GI50 [22]: 2.39 µM; TGI [22]: 23.5 µM; GI50 [23]: 3.68 µM; TGI [23]: 18.6 µM; GI50 [24]: < 0.01 µM; TGI [24]: 0.137 µM; GI50 [25]: 3.34 µM; TGI [25]: 21.5 µM; GI50 [26]: < 0.01 µM; TGI [26]: 1.11 µM; GI50 [27]: < 0.01 µM; TGI [27]: 11.5 µM; GI50 [28]: 0.0603 µM; TGI [28]: 9.75 µM; GI50 [29]: 0.181 µM; TGI [29]: 1.77 µM; GI50 [30]: < 0.01 µM; TGI [30]: < 0.01 µM; GI50 [31]: < 0.01 µM; TGI [31]: 30.6 µM; GI50 [32]: 1.09 µM; TGI [32]: 26.9 µM; GI50 [33]: 18.5 µM; TGI [33]: 53.2 µM; GI50 [34]: < 0.01 µM; TGI [34]: 25.2 µM; GI50 [35]: < 0.01 µM; TGI [35]: 7.63 µM; GI50 [36]: 0.184 µM; TGI [36]: 11 µM; GI50 [37]: < 0.01 µM; TGI [37]: < 0.01 µM; GI50 [38]: 0.268 µM; TGI [38]: 12.6 µM; GI50 [39]: < 0.01 µM; TGI [39]: < 0.01 µM; GI50 [40]: 0.215 µM; TGI [40]: 10.6 µM; GI50 [41]: < 0.01 µM; TGI [41]: 0.164 µM; GI50 [42]: < 0.01 µM; TGI [42]: 0.179 µM; GI50 [43]: 0.466 µM; TGI [43]: 19.6 µM; GI50 [44]: 1.99 µM; TGI [44]: 36.7 µM; GI50 [45]: < 0.01 µM; TGI [45]: < 0.01 µM; GI50 [46]: < 0.01 µM; TGI [46]: 11.6 µM; GI50 [47]: < 0.01 µM; TGI [47]: 1.11 µM; GI50 [48]: < 0.01 µM; TGI [48]: 17.2 µM; GI50 [49]: 0.783 µM; TGI [49]: 34.5 µM; GI50 [50]: 4.01 µM; TGI [50]: 16.3 µM; GI50 [51]: 11.5 µM; TGI [51]: 25.4 µM; GI50 [52]: 0.191 µM; TGI [52]: 10.4 µM; GI50 [53]: 0.929 µM; TGI [53]: 22.7 µM; GI50 [54]: < 0.01 µM; TGI [54]: 5.39 µM; GI50 [55]: < 0.01 µM; TGI [55]: 16.9 µM; GI50 [56]: < 0.01 µM; TGI [56]: 19.9 µM; GI50 [57]: 1.62 µM; TGI [57]: 17.9 µM
